{"source": "patent US5567704A", "about": "“R-enatiomerically pure hydroxylated xanthine compounds to treat baldness” (priority 1995, dated 1996)", "key": {"U937 cells": {"test_system": "U937 cells", "assay": "adhesion of IL-1α activated U937 cells to HUVEC", "type": "cell-based, human", "conditions": "250 μM pre-treatment of U937 cells, FIG. 22", "experimental": "Murine peritoneal exudate cell macrophages (PEC) were isolated by perfusion of mouse peritoneum and plated into 96-well trays at 5×10^5 cells per well. Cells were stimulated with 5 μg/ml Salmonella abortus equi -derived endotoxin (LPS; Sigma Chemical Co., L-1887) or […] IL-1α (Genzyme; Cambridge, Mass.) with or without the addition of CT1501R added to the cultures one hour prior to addition of the stimulus. At various times thereafter, supernatants were removed and levels of either TNF-α or IL-1α were assayed using commercial 96-well microtiter immunoassay kits (Genzyme; TNF; Endogen, Boston, Mass.; IL-1α) according to manufacturer's specifications. For the adhesion studies, early passage human umbilical vein endothelial cells (HUVEC) were obtained. from commercial suppliers (Clonetics, San Diego, Calif. or Cell Systems, Seattle, Wash.) and cultured in defined, Hepes buffered, serum free medium (Cell Systems, cat 301-180) supplemented with acidic FGF (Cell Systems cat 401-111). 4000 cells were plated into each well of a 96-well microtiter plate and allowed to incubate for 72 hrs at 37° C. […] After addition of […] Hanks Balanced Salt Solution (HBSS), the microtiter plate was then analyzed on a Millipore Cytofluor fluorescent plate reader (excitation 488 nm; emission 525 nm). […]"}, "thymocytes": {"test_system": "thymocytes", "assay": "thymocyte costimulator assay (ConA and IL-1α or IL-2)", "type": "cell-based, mice", "conditions": "drug added two hours prior, FIG. 3", "experimental": "A thymocyte costimulator assay is conducted to evaluate the inventive compounds to inhibit activation and proliferation of thymocytes caused by stimulation with Con A and interleukin-1 (IL-1), or […]. Thymuses are obtained from mice (e.g., female Balb/C mice) and the thymuses are removed and dissociated into culture media (e.g., RPMI 1640 without serum supplementation). The dissociated thymus tissue and cell suspension is transferred to centrifuge tubes and allowed to settle, washed with HBSS and resuspended in serum-supplemented culture media (e.g., RPMI 1640 with 10% fetal calf serum). Any contaminating red cells are lysed, and viable cells are resuspended and counted. Thymocytes are plated (e.g., 96-well plates at a density of 2×10^5 cells/well) and a stimulating agent, such as Con A, IL-1 (e.g., IL-1α) or IL-2 is added to the well. The cells are incubated for 4 days at 37° C. On the fourth day, the cells are pulsed with tritiated thymidine and cell proliferation determined. Inventive compounds are added at the time of stimulating agent addition.\nCT1501R was added to the cells at the doses indicated two hours prior to activation with ConA and IL-1α or IL-2. Background counts were less than 200 cpm."}, "IL-6": {"test_system": "IL-6", "assay": "mouse plasma IL-6 ELISA after endotoxin", "type": "in vivo", "conditions": "for Plasma IL-6: LPS + CT-1501R", "experimental": "For ELISA measurements of cytokine levels in plasma, blood was collected by retro-orbital or cardiac puncture of anesthetized mice, immediately centrifuged and the EDTA plasma stored at -70° C. Particulate free plasma was thawed on ice and cytokine levels determined utilizing commercial ELISA assays with normal mouse plasma used to generate standard curves. Murine tumor necrosis factor-α and interleukin-1αkits were purchased from Genzyme (Cambridge, Mass.) and Endogen (Boston, Mass.), respectively. Each data point was an average of two ELISA measurements made from EDTA […] pooled from three mice. The data summarized in Table 3 were compiled from two independent experiments; data from Table 4 and 5 were from single experiments of three mice per data point.\nIn particular, peak levels observed at 6, 12 and 18 hours post endotoxin were decreased 1.2, 4.3 and 3.2-fold, respectively. Finally, IL-6 measurements were made in a similar manner (Table 6, FIG. 8)."}, "[1]": {"test_system": "TNF-α release from LPS stimulated PEC cells", "assay": "TNF-α release from LPS stimulated PEC macrophages (ELISA)", "type": "cell-based, murine", "conditions": "Mus musculus, Macrophage", "experimental": "Murine peritoneal exudate cell macrophages (PEC) were isolated by perfusion of mouse peritoneum and plated into 96-well trays at 5×10^5 cells per well. […] At various times thereafter, supernatants were removed and levels of either TNF-α or IL-1α were assayed using commercial 96-well microtiter immunoassay kits (Genzyme; TNF; Endogen, Boston, Mass.; IL-1α) according to manufacturer's specifications. […] 4000 cells were plated into each well of a 96-well microtiter plate and allowed to incubate for 72 hrs at 37° C. […] Either the HUVEC or U937 cells were stimulated with either LPS, IL-1α or TNF-α for 12 hrs. For the adhesion assay, U937 cells were labeled with the fluorescent viability stain, 2',7'-bis-(2-carboxyethyl)-5-(and-6)-carboxyfluorescein acetoxymethyl ester (BCECF). […] The cells were washed once with full media and 50,000 cells/well added to the HUVEC cultures. The samples were incubated at 37° C. for 30 min, inverted and centrifuged for 10 min at 400× g. After addition of […] Hanks Balanced Salt Solution (HBSS), the microtiter plate was then analyzed on a Millipore Cytofluor fluorescent plate reader (excitation 488 nm; emission 525 nm).\nCells were pretreated with […] CT1501R and supernatants assayed by ELISA for released TNF-α as a function of time following LPS stimulation. […]"}}, "data": [{"smiles": "C[C@@H](O)CCCCn1c(=O)c2c(ncn2C)n(C)c1=O", "note": "[CT1501R, (R)-1-(5-hydroxyhexyl)-3,7-dimethylxanthine]", "values": [{"measurement": "IL-1α mediated increase in adhesion of U937 cells to HUVEC", "setting": "U937 cells", "value": "effectively blocked the IL-1α mediated increase in adhesion to HUVEC to near background levels"}, {"measurement": "inhibition of thymocyte proliferation", "setting": "thymocytes", "value": "inhibited thymocyte proliferation in a dose-response manner"}, {"measurement": "fold decrease of plasma IL-6", "setting": "IL-6; 3 hours post endotoxin", "value": 1.7, "unit": "fold"}, {"measurement": "fold decrease of plasma IL-6", "setting": "IL-6; 6 hours post endotoxin", "value": 2.0, "unit": "fold"}, {"measurement": "fold decrease of plasma IL-6", "setting": "IL-6; 12 hours post endotoxin", "value": 4.1, "unit": "fold"}, {"measurement": "Plasma IL-6", "setting": "IL-6; 0 hours post LPS", "value": 0, "unit": "ng/mL"}, {"measurement": "Plasma IL-6", "setting": "IL-6; 0.17 hours post LPS", "value": 0.14, "unit": "ng/mL"}, {"measurement": "Plasma IL-6", "setting": "IL-6; 0.5 hours post LPS", "value": 1, "unit": "ng/mL"}, {"measurement": "Plasma IL-6", "setting": "IL-6; 1 hour post LPS", "value": 31.8, "unit": "ng/mL"}, {"measurement": "Plasma IL-6", "setting": "IL-6; 3 hours post LPS", "value": 183, "unit": "ng/mL"}, {"measurement": "Plasma IL-6", "setting": "IL-6; 6 hours post LPS", "value": 121, "unit": "ng/mL"}, {"measurement": "Plasma IL-6", "setting": "IL-6; 12 hours post LPS", "value": 29.6, "unit": "ng/mL"}, {"measurement": "Plasma IL-6", "setting": "IL-6; 18 hours post LPS", "value": 19.8, "unit": "ng/mL"}, {"measurement": "Plasma IL-6", "setting": "IL-6; 24 hours post LPS", "value": 25.6, "unit": "ng/mL"}, {"measurement": "Plasma IL-6", "setting": "IL-6; 36 hours post LPS", "value": 1.64, "unit": "ng/mL"}, {"measurement": "Plasma IL-6", "setting": "IL-6; 48 hours post LPS", "value": 0.4, "unit": "ng/mL"}, {"measurement": "IC50", "setting": "[1]; LPS stimulated PEC, drug 1 hour before LPS, FIG. 18, read-out: concentration for 50% inhibition of TNF-α release (IC50)", "value": "~30", "unit": "µM"}, {"measurement": "inhibition at 500 µM", "setting": "[1]; at 500 μM, read-out: inhibitory effects, % of the maximal LPS stimulation (1428 pg/ml)", "value": "~40", "unit": "%"}]}]}
